In the CheMixHub viscosity set:

Test: xn = mol fraction of the nth substance listed

Cc1ccccn1 + CCC(C)=O
viscosity [mPa·s], 101.3 kPa
Settings	x1 = 0.1	x1 = 0.2	x1 = 0.3	x1 = 0.4	x1 = 0.5	x1 = 0.6	x1 = 0.7	x1 = 0.7999	x1 = 0.9
303.15 K	0.4017	0.4296	0.4565	0.4877	0.5193	0.5612	0.5978	0.6425	0.6942
313.15 K	0.3667	0.3917	0.416	0.4445	0.4702	0.5038	0.5356	0.5718	0.6118
323.15 K	0.3457	0.3572	0.3813	0.4009	0.4264	0.4523	0.4827	0.5104	0.5528

ClC=C(Cl)Cl + CCC(C)O
303.15 K, 101.3 kPa
Settings	viscosity [mPa·s]
x1 = 0.1104	1.721
x1 = 0.213	1.3
x1 = 0.312	1.042
x1 = 0.4086	0.881
x1 = 0.5218	0.761
x1 = 0.6132	0.695
x1 = 0.7094	0.647
x1 = 0.8124	0.606
x1 = 0.9012	0.57

NC1CCCCC1 + CCC(C)O
298.15 K, 101 kPa
Settings	viscosity [mPa·s]
x1 = 0.0767	2.804
x1 = 0.1574	2.619
x1 = 0.2426	2.472
x1 = 0.3325	2.369
x1 = 0.4277	2.302
x1 = 0.5285	2.25
x1 = 0.6355	2.224
x1 = 0.7493	2.148
x1 = 0.8706	2.002

CC(O)CO (centres undefined) + CCCCCCCO
Settings	viscosity [mPa·s]
303.15 K, 101 kPa, x2 = 0.6097	7.655

ClC=C(Cl)Cl + CCCCCCCO
303.15 K, 101 kPa
Settings	viscosity [mPa·s]
x2 = 0.1161	0.734
x2 = 0.2045	0.863
x2 = 0.3792	1.166
x2 = 0.4884	1.459
x2 = 0.5714	1.767
x2 = 0.6298	2.03
x2 = 0.737	2.643
x2 = 0.8161	3.197
x2 = 0.9242	4.119

CC(O)CO (centres undefined) + CCCCCCO
101 kPa
Settings	viscosity [mPa·s]
303.15 K, x2 = 0.6309	6.725
308.15 K, x2 = 0.0771	20.05

O=C1CCCC1 + CCCCCCO
303.15 K, 101 kPa
Settings	viscosity [mPa·s]
x1 = 0.0985	2.896
x1 = 0.2605	2.093
x1 = 0.4224	1.641
x1 = 0.5807	1.333
x1 = 0.7406	1.132
x1 = 0.9025	1.016

O=C1CCCC1 + CCCCCO
303.15 K, 101 kPa
Settings	viscosity [mPa·s]
x1 = 0.0989	2.258
x1 = 0.2598	1.682
x1 = 0.4202	1.353
x1 = 0.5803	1.179
x1 = 0.7374	1.057
x1 = 0.9009	0.98

O=C1CCCC1 + CCCCN
303.15 K, 101.33 kPa
Settings	viscosity [mPa·s]
x2 = 0.0957	1.45
x2 = 0.2075	1.902
x2 = 0.3126	2.204
x2 = 0.4731	2.34
x2 = 0.5364	2.252
x2 = 0.6816	1.904
x2 = 0.7758	1.552
x2 = 0.8894	1.073

CC(O)CO (centres undefined) + CCCCO
viscosity [mPa·s], 100 kPa
Settings	298.15 K	303.15 K	308.15 K	313.15 K	318.15 K	323.15 K
x2 = 0.1	27.93	21.57	16.86	13.38	10.79	8.811
x2 = 0.2	19.65	15.46	12.28	9.943	8.14	6.729
x2 = 0.302	14.18	11.36	9.188	7.539	6.25	5.239
x2 = 0.4	10.82	8.829	7.309	6.057	5.107	4.328
x2 = 0.5	8.015	6.634	5.555	4.699	–	–
x2 = 0.501	–	–	–	–	3.987	3.422
x2 = 0.6	6.068	5.094	4.337	3.686	–	–
x2 = 0.601	–	–	–	–	3.178	2.743
x2 = 0.701	4.884	4.156	3.556	3.057	2.659	2.317
x2 = 0.801	3.858	3.307	2.885	2.514	2.199	1.937
x2 = 0.9	3.102	2.716	2.374	2.078	–	–
x2 = 0.901	–	–	–	–	1.833	1.634

ClC=C(Cl)Cl + CCCCO
viscosity [mPa·s], 101 kPa
Settings	x2 = 0.0983	x2 = 0.2464	x2 = 0.3954	x2 = 0.5452	x2 = 0.696	x2 = 0.8476
303.15 K	0.669	0.98	1.24	1.492	1.747	2
313.15 K	0.601	0.814	1.03	1.218	1.408	1.599
323.15 K	0.52	0.698	0.835	0.973	1.111	1.252
